Converted amounts (≈) assume the structure as drawn.
What was measured:
Format in all cases: cell-based
[1] = tested on: Staphylococcus aureus 29213; assay: Antibacterial growth inhibition assay (serial dilution, colorimeter at 600 nm), S. aureus 29213; set-up: key to MIC, concentration at 50% inhibition of bacteria growth, S. aureus 29213: N stands for no inhibition; settings: for MIC, concentration at 50% inhibition of bacteria growth, S. aureus 29213: 50% growth inhibition, methicillin susceptible strain, serial dilution 238-0.46 μg/ml
Method: (§1) The antibacterial activities of the compounds synthesized as described above were evaluated by assay against several strains of Gram positive bacteria from the American Type Culture Collection (ATCC), Staphylococcus aureus 29213, Staphylococcus aureus 43300, Enterococcus faecalis 29212, and Bacillus subtilis PY79. The minimum inhibition concentration (MIC, μg/mL) of each compound synthesized was tested against four bacterial strains. The inhibition of bacterial growth was monitored using a standard colorimeter at 600 nm using a serial dilution at concentrations 238, 119, 59.5, 29.8, 14.9, 7.44, 3.72, 1.86, 0.93, 0.46 μg/ml. Chloramphenicol was tested as a control, and inhibits bacteria growth (MIC90) at 7.44, 7.44, 4.0, 2.0 μg/mL, respectively, for the four bacterial strains listed in Table 1. In Table 1, the MICs are reported as the concentrations at 50% inhibition of bacteria growth, and N stands for no inhibition.

[2] = tested on: Staphylococcus aureus 43300; assay: Antibacterial growth inhibition assay (serial dilution, colorimeter at 600 nm), S. aureus 43300; set-up: key to MIC, concentration at 50% inhibition of bacteria growth, S. aureus 43300: N stands for no inhibition; settings: for MIC, concentration at 50% inhibition of bacteria growth, S. aureus 43300: 50% growth inhibition, methicillin resistant strain, serial dilution 238-0.46 μg/ml
Method: as §1

[3] = tested on: Enterococcus faecalis 29212; assay: Antibacterial growth inhibition assay (serial dilution, colorimeter at 600 nm), E. faecalis 29212; settings: for MIC, concentration at 50% inhibition of bacteria growth, E. faecalis 29212: 50% growth inhibition, vancomycin susceptible strain, serial dilution 238-0.46 μg/ml
Method: as §1

Bacillus subtilis PY79 = assay: Antibacterial growth inhibition assay (serial dilution, colorimeter at 600 nm), B. subtilis PY79; set-up: key to MIC, concentration at 50% inhibition of bacteria growth, B. subtilis PY79: N stands for no inhibition; settings: for MIC, concentration at 50% inhibition of bacteria growth, B. subtilis PY79: 50% growth inhibition, serial dilution 238-0.46 μg/ml
Method: as §1

Q: `CCN1CC[C@@H](CN(Cc2ccccc2)Cc2cccc(OC)c2)OC1=O` [Compound A16] was tested. Which “MIC, concentration at 50% inhibition of bacteria growth, S. aureus 29213” value [1] did it give?
A: Its value is 90.0 mg/L.

Q: What about the “MIC, concentration at 50% inhibition of bacteria growth, S. aureus 43300” value [2] of the same compound?
A: The value was 90.0 mg/L.

Q: What about the “MIC, concentration at 50% inhibition of bacteria growth, E. faecalis 29212” value [3] of the same compound?
A: The value was 80.5 mg/L.

Q: What about the “MIC, concentration at 50% inhibition of bacteria growth, B. subtilis PY79” value (Bacillus subtilis PY79) of the same compound?
A: Its value is 95.0 mg/L.

Q: Which results are given for `CCN1CC[C@@H](CN(Cc2ccccc2)Cc2cccc([N+](=O)[O-])c2)OC1=O` [Compound A2]?
A: MIC, concentration at 50% inhibition of bacteria growth, S. aureus 29213 [1]: 90.0 mg/L; MIC, concentration at 50% inhibition of bacteria growth, S. aureus 43300 [2]: 22.0 mg/L; MIC, concentration at 50% inhibition of bacteria growth, E. faecalis 29212 [3]: 47.0 mg/L; MIC, concentration at 50% inhibition of bacteria growth, B. subtilis PY79 (Bacillus subtilis PY79): 108 mg/L

Q: `CN1CC[C@@H](CN(Cc2ccccc2)Cc2ccccc2[N+](=O)[O-])OC1=O` [Compound B3] was tested. Which “MIC, concentration at 50% inhibition of bacteria growth, S. aureus 29213” value [1] did it give?
A: Its value is 179 mg/L.

Q: What about the “MIC, concentration at 50% inhibition of bacteria growth, S. aureus 43300” value [2] of the same compound?
A: Its value is “N”.

Q: What about the “MIC, concentration at 50% inhibition of bacteria growth, E. faecalis 29212” value [3] of the same compound?
A: Its value is 238 mg/L.

Q: What about the “MIC, concentration at 50% inhibition of bacteria growth, B. subtilis PY79” value (Bacillus subtilis PY79) of the same compound?
A: Its value is 238 mg/L.

Q: For `CCN1CC[C@@H](CN(Cc2ccccc2)Cc2ccc([N+](=O)[O-])cc2)OC1=O` [Compound A1], which “MIC, concentration at 50% inhibition of bacteria growth, S. aureus 29213” value [1] is on record?
A: Its value is “N”.

Q: And the “MIC, concentration at 50% inhibition of bacteria growth, S. aureus 43300” value [2]?
A: Its value is “N”.

Q: And the “MIC, concentration at 50% inhibition of bacteria growth, E. faecalis 29212” value [3]?
A: The value was 45.0 mg/L.

Q: And the “MIC, concentration at 50% inhibition of bacteria growth, B. subtilis PY79” value (Bacillus subtilis PY79)?
A: Its value is “N”.

Q: How did the “MIC, concentration at 50% inhibition of bacteria growth, S. aureus 29213” value [1] turn out when `CN1CC[C@@H](CN(Cc2ccccc2)Cc2ccc(F)cc2)OC1=O` [Compound B7] was run?
A: Its value is 87.1 mg/L.

Q: What about the “MIC, concentration at 50% inhibition of bacteria growth, S. aureus 43300” value [2] of the same compound?
A: The value was 119 mg/L.

Q: And the “MIC, concentration at 50% inhibition of bacteria growth, E. faecalis 29212” value [3]?
A: Its value is 120 mg/L.

Q: What about the “MIC, concentration at 50% inhibition of bacteria growth, B. subtilis PY79” value (Bacillus subtilis PY79) of the same compound?
A: Its value is 95.0 mg/L.

Q: Which “MIC, concentration at 50% inhibition of bacteria growth, S. aureus 29213” value [1] does the source give for `CN1CC[C@@H](CN(Cc2ccccc2)Cc2ccc(F)cc2F)OC1=O` [Compound B8] here?
A: The value was 50.0 mg/L.

Q: And the “MIC, concentration at 50% inhibition of bacteria growth, S. aureus 43300” value [2]?
A: Its value is 72.0 mg/L.

Q: And the “MIC, concentration at 50% inhibition of bacteria growth, E. faecalis 29212” value [3]?
A: The value was 59.5 mg/L.

Q: And the “MIC, concentration at 50% inhibition of bacteria growth, B. subtilis PY79” value (Bacillus subtilis PY79)?
A: Its value is 55.0 mg/L.

Q: How did the MIC90 ([1]; Staphylococcus aureus, S. aureus 29213, read-out: MIC90 (control)) turn out when `O=C(N[C@H](CO)[C@H](O)c1ccc([N+](=O)[O-])cc1)C(Cl)Cl` [Chloramphenicol, reference compound] was run?
A: Its MIC90 is 7.44 mg/L (≈ 23 µM).

Q: What about the MIC90 ([2]; Staphylococcus aureus, S. aureus 43300, read-out: MIC90 (control)) of the same compound?
A: The MIC90 was 7.44 mg/L (≈ 23 µM).

Q: And the MIC90 ([3]; Enterococcus faecalis, E. faecalis 29212, read-out: MIC90 (control))?
A: Its MIC90 is 4 mg/L (≈ 12.4 µM).

Q: What about the MIC90 (Bacillus subtilis PY79; Bacillus subtilis, B. subtilis PY79, read-out: MIC90 (control)) of the same compound?
A: The MIC90 was 2 mg/L (≈ 6.19 µM).

Q: For `CCN1CC[C@@H](CN(Cc2ccccc2)Cc2ccc3ccccc3c2)OC1=O` [Compound A12], which “MIC, concentration at 50% inhibition of bacteria growth, S. aureus 29213” value [1] is on record?
A: The value was 15.0 mg/L.

Q: What about the “antibacterial activity in words” value ([1]; S. aureus 29213) of the same compound?
A: Its value is “promising activity”.

Q: What about the “MIC, concentration at 50% inhibition of bacteria growth, S. aureus 43300” value [2] of the same compound?
A: The value was “N”.

Q: What about the “antibacterial activity in words” value ([2]; S. aureus 43300) of the same compound?
A: The value was “no activity”.

Q: What about the “MIC, concentration at 50% inhibition of bacteria growth, E. faecalis 29212” value [3] of the same compound?
A: The value was 13.0 mg/L.

Q: What about the “MIC, concentration at 50% inhibition of bacteria growth, B. subtilis PY79” value (Bacillus subtilis PY79) of the same compound?
A: Its value is 29.0 mg/L.

Q: How did the “MIC, concentration at 50% inhibition of bacteria growth, S. aureus 29213” value [1] turn out when `CN1CC[C@@H](CN(Cc2ccccc2)Cc2ccc(C#N)cc2)OC1=O` [Compound B4] was run?
A: The value was 200 mg/L.

Q: What about the “MIC, concentration at 50% inhibition of bacteria growth, S. aureus 43300” value [2] of the same compound?
A: Its value is “N”.

Q: And the “MIC, concentration at 50% inhibition of bacteria growth, E. faecalis 29212” value [3]?
A: Its value is 238 mg/L.

Q: And the “MIC, concentration at 50% inhibition of bacteria growth, B. subtilis PY79” value (Bacillus subtilis PY79)?
A: The value was 238 mg/L.

Q: With `CCN1CC[C@@H](CN(Cc2ccccc2)Cc2ccccc2C#N)OC1=O` [Compound A6] as the compound, how does the “MIC, concentration at 50% inhibition of bacteria growth, S. aureus 29213” value [1] read?
A: The value was 130 mg/L.

Q: And the “MIC, concentration at 50% inhibition of bacteria growth, S. aureus 43300” value [2]?
A: The value was 180 mg/L.

Q: What about the “MIC, concentration at 50% inhibition of bacteria growth, E. faecalis 29212” value [3] of the same compound?
A: Its value is 33.0 mg/L.

Q: And the “MIC, concentration at 50% inhibition of bacteria growth, B. subtilis PY79” value (Bacillus subtilis PY79)?
A: Its value is 160 mg/L.
